The text below walks through data of patent US7300927B2, “Method for treating or preventing Alzheimer's disease” (priority 1997, dated 2007).

One data set has as its system mice. The note with it: 13 month old mice, administered directly to the brains; cited from earlier work.
The test system of data set [1] is PNET2 cells. Kind of data set: Neuritic sprouting and neuronal differentiation in PNET2 cells. Format: cell-based. The settings on record: for NTP species expression associated with neuritic growth/sprouting: PNET2 and SH-Sy5y cells (not separated); for neuritic sprouting and neuronal differentiation: PNET2 cells. The text has this:
(§1) Neuritic sprouting and neuronal differentiation were induced in PNET2 and SH-Sy5y cells by insulin, PMA, or RA stimulation. […] Thus, expression of the immature or fetal forms of NTP are regulated by mechanisms and growth factors distinct from those involved in modulating expression of the 21 kD and 26 kD NTP molecules. Therefore, expression of fetal NTP molecules/genes can be mediated through the IRS-1 cascade, whereas expression of adult brain/AD-associated NTP genes can be regulated mainly through protein kinase C pathways.

In a further data set the test system is SH-Sy5y cells. Kind of data set: Neuritic sprouting and neuronal differentiation in SH-Sy5y cells. It is filed as cell-based.
Source text: as §1

Data set [2] deals with PNET2 cells. Kind of data set: Insulin stimulated differentiation and NTP expression in PNET2 cells. Format: cell-based.
The subject of a further data set is PNET1 cells. Kind of data set: Insulin responsiveness, NTP modulation and signal transduction in PNET1 cells. Format: cell-based. The source says:
Insulin is an important mediator of growth and differentiation in CNS neurons.
Correspondingly, the insulin-stimulated association between PI3 kinase and phosphorylated IRS-1 was also impaired in PNET1 cells. In essence, impaired insulin-mediated tyrosyl phosphorylation of IRS-1 in PNET1 cells halted activation of the insulin signal transduction cascade, and subsequent events leading to modulated gene (NTP) expression. […] The results were confirmed by absent association between PI3 kinase and IRS-1-PY in PNET1 cells after insulin stimulation.

Turning to `O=C(CCn1cnc2c(=O)[nH]cnc21)Nc1ccc(C(=O)[O-])cc1.[K+]` [AIT-082], in the data set with mice, the “animals showing a delay of about two months in any memory deficit” value is listed as “about 50%” and the “animals that never develop a memory deficit” value is 50%.

`CCCCCCCCCCCCCC(=O)O[C@@H]1[C@@H](C)[C@@]2(O)[C@@H](C=C(CO)C[C@]3(O)C(=O)C(C)=C[C@@H]23)[C@@H]2C(C)(C)[C@]12OC(C)=O` [PMA]: in the data set with PNET2 cells [1], the “NTP species expression associated with neuritic growth/sprouting” value is “modulated expression of the 21 kD and 26 kD NTP species”; the “neuritic sprouting and neuronal differentiation” value was “induced”. For the same molecule, the “neuritic sprouting and neuronal differentiation” value in the data set on SH-Sy5y cells is “induced”.

Turning to `CC1=C(/C=C/C(C)=C/C=C/C(C)=C/C(=O)O)C(C)(C)CCC1` [RA], the “NTP species expression associated with neuritic growth/sprouting” value in the data set on PNET2 cells [1] was “modulated expression of the 21 kD and 26 kD NTP species”. The “neuritic sprouting and neuronal differentiation” value in the data set on PNET2 cells [1] and with SH-Sy5y cells was “induced” throughout.

Take “Insulin: Insulin, an important mediator of growth and differentiation in CNS neurons”: the “synthesis and steady state levels of all five NTP species” value in the data set on PNET2 cells [2] (following the transient increases) is “sustained increases”. In the data set with PNET2 cells [2] (insulin stimulated differentiation), the “levels of the 39 kD, 18 kD and 15 kD NTP species” value is recorded as “rapid (within 10 minutes) but transient increases”. Also, the “phosphorylation of IRS-1, up-regulation of NTP, neuronal differentiation” value with PNET2 cells [2] (insulin stimulation) was “responded to insulin stimulation with phosphorylation of IRS-1, up-regulation of NTP, and neuronal differentiation”. Moreover, in the data set with PNET1 cells, the induction of differentiation entry is recorded as “failure of insulin to induce differentiation”, the “insulin modulation of NTP” value is given as “absent insulin modulation of NTP”, the insulin receptor phosphorylation entry was “normal insulin receptor phosphorylation” and the “insulin-mediated tyrosyl phosphorylation of IRS-1” value was “impaired”. In addition, the “insulin-stimulated association between PI3 kinase and phosphorylated IRS-1” value in the data set with PNET1 cells was “also impaired”. In the data set with PNET2 cells [1], the “NTP species expression associated with neuritic growth/sprouting” value was “increased expression of the fetal brain and PNET-dominant forms of NTP (15 kD and 18 kD)”; the “neuritic sprouting and neuronal differentiation” value is “induced”. For the same molecule, the “neuritic sprouting and neuronal differentiation” value with SH-Sy5y cells is “induced”.
